Test results taken from PMC5387716, “Discovery of monocarbonyl curcumin-BTP hybrids as STAT3 inhibitors for drug-sensitive and drug-resistant breast cancer therapy” (Scientific Reports, 2017).

What was measured:
STAT3 [1] = experiment: Western blot of STAT3 phosphorylation; assay type: cell-based, human; conditions: MCF-7 and MCF-7/DOX cells
Method: MCF-7 or MCF-7/DOX cells were incubated with various concentrations of 6b for 24 h. After trypsinization, cells were treated with 1× RIPA lysis buffer (50 mM Tris–HCl, pH 7.4, 150 mM NaCl, 0.25% deoxycholic acid, 1% NP-40, 1 mM EDTA and protease inhibitors) (Amresco, Solon, USA) to extract the total proteins. An aliquot of proteins from the total cell lysates (30 to 60 μg/lane) was separated by sodium dodecyl sulfate (10%) polyacrylamide gel electrophoresis (SDS–PAGE, Bio-Rad Laboratories, Hercules, CA), wet-transferred to NC membrane (Bio-Rad Laboratories, Hercules, CA) and blotted with primary antibodies specific for STAT3, p-STAT3, p-Jak2, Jak2, p-Src, Src, Erk, P-Erk, PARP, cleaved PARP, Bcl-2, Bax, Cyclin D1, P-gp and GAPDH. Bound immuno-complexes were detected using ChemiDOC™ XRS + system (Bio-Rad Laboratories, Hercules, CA).

STAT3 [2] = experiment: EMSA of STAT3 DNA-binding activity (hSIE probe); assay type: cell-based, human; conditions: nuclear extracts of MCF-7 cells, 24 h
Method: MCF-7 cells were cultured overnight and then treated with compound 6b in fresh regular growth medium for 24 h. The cells were harvested and nuclear extract preparations and EMSA analysis were carried out as previously described. The ^32P-labeled oligonucleotide, hSIE probe, was used to bind STAT3.

MCF-7/DOX cells = experiment: Flow cytometry of the cell cycle, MCF-7/DOX; assay type: cell-based, human; conditions: 24 h
Method: MCF-7 or MCF-7/DOX cells were plated in 6-well culture plates (1.5 × 10^5 cells per well). After incubation overnight, various concentrations of 6b or curcumin were added and cells were incubated for 24 h. Cells were harvested, washed with cold PBS, and incubated with pre-cooled 70% ethanol for a minimum of 4 h at 4 °C to fix them. The cells were then centrifuged, carefully aspirated from the supernatant, and re-suspended in a propidium iodide (final concentration, 40 μg/ml) and RNase A (final concentration, 100 μg/ml) solution at a final cell density of 0.5 × 10^6 cells/ml. The suspension was incubated at 37 °C for 30 min prior to analysis by flow cytometry.

MCF-7 cells = experiment: ROS detection by DCFH-DA flow cytometry, MCF-7; assay type: cell-based, human; conditions: MCF-7, different concentrations (1, 2, 4 μM), 24 h
Method: MCF-7 or MCF-7/DOX cells were seeded at a density of 3 × 10^5 cells per well of a 6-well plate and treated with various concentrations of 6b (0, 1, 2, 4 μM) or 4 μM curcumin for 24 h. DCFH-DA was dissolved in serum-free medium and diluted to a final concentration of 10 μM. After treatment with 6b, the growth media was replaced with serum-free medium containing the probe. After incubation for 20 min at 37 °C, cells were washed with serum-free medium twice, digested by trypsin and resuspended in pre-warmed PBS buffer. The samples were then subjected to a flow cytometry assay using a BD FACSCalibur flow cytometer (Becton & Dickinson Company, Franklin Lakes, NJ).

STAT1 = experiment: IFN-γ induced STAT1 phosphorylation (western blot); assay type: cell-based, human; conditions: MCF-7, 0.5–4 μM, 6 h, IFN-γ 50 ng/mL 30 min; compared with effect on IL-6-induced p-STAT3

melting point: 250 to 251 °C
Compound: COc1ccc(/C=C/C(=O)N2CCN(C(=O)C3=Cc4cc(Br)ccc4S3(=O)=O)CC2)cc1 [Compound 6b, (E)-1-(4-(5-bromo-1,1-dioxidobenzo[b]thiophene-2-carbonyl)piperazin-1-yl)-3-(4-methoxyphenyl)prop-2-en-1-one]
p-STAT3 level (STAT3 [1]; 1.0 μM): significantly inhibited | STAT3 phosphorylation at the Ser727 residue (STAT3 [1]; 24 h): little effect | STAT3 phosphorylation at the pTyr705 residue (STAT3 [1]; 24 h): dose-dependent inhibition | total STAT3 protein level (STAT3 [1]; 24 h): little effect | STAT3 DNA-binding activity (STAT3 [2]): strongly inhibited STAT3 DNA-binding activity in a dose-dependent manner | cells in the Sub-G1 phase (MCF-7/DOX cells): significant increase | percentage of cells in the G0/G1 phase (MCF-7/DOX cells): increased | increase of ROS levels (MCF-7 cells): 2–8 fold | IFN-γ-induced STAT1 phosphorylation (STAT1): less of an effect
